Source: the NIST ThermoML archive (doi:10.1016/j.jct.2019.01.025)
Numbers after ± are expanded uncertainties.

Assay: xn = mol fraction of the nth substance listed
Settings: 100 kPa, Liquid, Vibrating tube method

NCCO [2-aminoethan-1-ol] + CC(C)(C)O
mass density [kg/m3]
Settings | x1 = 0.1188 | x1 = 0.2328 | x1 = 0.3421 | x1 = 0.4472 | x1 = 0.5482 | x1 = 0.6454 | x1 = 0.739 | x1 = 0.8291 | x1 = 0.9161 | x1 = 1
298.15 K | 801.37 ± 5.3 | 821.17 ± 5.5 | 842.86 ± 5.8 | 865.97 ± 5.9 | 887.94 ± 6.2 | 912.32 ± 6.6 | 938.36 ± 6.8 | 962.65 ± 7 | 988.97 ± 7.1 | 1012.53 ± 4
303.15 K | 796.64 ± 5.3 | 816.75 ± 5.5 | 838.57 ± 5.8 | 861.74 ± 5.9 | 883.79 ± 6.2 | 908.2 ± 6.6 | 934.25 ± 6.8 | 958.59 ± 7 | 984.91 ± 7.1 | 1008.47 ± 4
308.15 K | 791.93 ± 5.4 | 812.34 ± 5.5 | 834.31 ± 5.8 | 857.55 ± 6 | 879.69 ± 6.2 | 904.13 ± 6.6 | 930.2 ± 6.8 | 954.6 ± 7 | 980.92 ± 7.1 | 1004.49 ± 4
313.15 K | 787.14 ± 5.5 | 807.85 ± 5.5 | 829.98 ± 5.8 | 853.33 ± 6 | 875.55 ± 6.2 | 900.04 ± 6.6 | 926.15 ± 6.8 | 950.59 ± 7 | 976.92 ± 7.1 | 1000.5 ± 4
318.15 K | 782.16 ± 5.5 | 803.17 ± 5.6 | 825.49 ± 5.8 | 848.95 ± 6 | 871.27 ± 6.2 | 895.8 ± 6.7 | 921.97 ± 6.8 | 946.45 ± 7 | 972.81 ± 7.1 | 996.39 ± 4
323.15 K | 777.17 ± 5.5 | 798.52 ± 5.6 | 821.03 ± 5.9 | 844.64 ± 6 | 867.05 ± 6.2 | 891.65 ± 6.7 | 917.86 ± 6.8 | 942.41 ± 7 | 968.8 ± 7.1 | 992.41 ± 4

NCCO [2-aminoethan-1-ol] + CC(C)CO
mass density [kg/m3]
Settings | x1 = 0.1188 | x1 = 0.2328 | x1 = 0.3421 | x1 = 0.4472 | x1 = 0.5482 | x1 = 0.6454 | x1 = 0.739 | x1 = 0.8291 | x1 = 0.9161 | x1 = 1
293.15 K | 819.76 ± 5.2 | 840.36 ± 5.4 | 859.83 ± 5.5 | 880.16 ± 5.7 | 901.41 ± 5.9 | 923.2 ± 6.2 | 946.54 ± 6.2 | 967.04 ± 6.5 | 992.18 ± 7 | 1016.47 ± 4
298.15 K | 815.85 ± 5.2 | 836.42 ± 5.4 | 855.88 ± 5.5 | 876.22 ± 5.7 | 897.44 ± 5.9 | 919.26 ± 6.2 | 942.54 ± 6.2 | 963.08 ± 6.5 | 988.22 ± 7 | 1012.53 ± 4
303.15 K | 811.84 ± 5.2 | 832.41 ± 5.4 | 851.83 ± 5.5 | 872.2 ± 5.7 | 893.38 ± 5.9 | 915.22 ± 6.2 | 938.44 ± 6.2 | 959.04 ± 6.5 | 984.12 ± 7 | 1008.47 ± 4
308.15 K | 807.88 ± 5.2 | 828.46 ± 5.4 | 847.85 ± 5.5 | 868.25 ± 5.7 | 889.39 ± 5.9 | 911.26 ± 6.2 | 934.38 ± 6.2 | 955.07 ± 6.5 | 980.15 ± 7 | 1004.49 ± 4
313.15 K | 803.87 ± 5.2 | 824.49 ± 5.4 | 843.85 ± 5.5 | 864.27 ± 5.7 | 885.38 ± 5.9 | 907.27 ± 6.2 | 930.38 ± 6.2 | 951.07 ± 6.5 | 976.15 ± 7 | 1000.5 ± 4
318.15 K | 799.72 ± 5.2 | 820.35 ± 5.4 | 839.71 ± 5.5 | 860.15 ± 5.7 | 881.25 ± 5.9 | 903.15 ± 6.2 | 926.19 ± 6.2 | 946.97 ± 6.5 | 972.04 ± 7 | 996.39 ± 4
323.15 K | 795.62 ± 5.2 | 816.29 ± 5.4 | 835.65 ± 5.5 | 856.12 ± 5.7 | 877.2 ± 5.9 | 899.14 ± 6.2 | 922.11 ± 6.2 | 942.97 ± 6.5 | 968.05 ± 7 | 992.41 ± 4

NCCO [2-aminoethan-1-ol] + CC(C)O
mass density [kg/m3]
Settings | x1 = 0.0986 | x1 = 0.1974 | x1 = 0.2966 | x1 = 0.3961 | x1 = 0.496 | x1 = 0.5961 | x1 = 0.6966 | x1 = 0.7974 | x1 = 0.8985 | x1 = 1
293.15 K | 804.43 ± 5.6 | 824.39 ± 5.7 | 844.97 ± 6 | 868.88 ± 6.2 | 891.61 ± 6.2 | 915.69 ± 6.2 | 939.56 ± 6.3 | 965.29 ± 6.4 | 989.95 ± 6.5 | 1016.47 ± 4
298.15 K | 800.28 ± 5.7 | 820.25 ± 5.7 | 840.83 ± 6 | 864.78 ± 6.2 | 887.55 ± 6.2 | 911.65 ± 6.2 | 935.53 ± 6.3 | 961.29 ± 6.4 | 985.96 ± 6.5 | 1012.53 ± 4
303.15 K | 795.98 ± 5.7 | 815.98 ± 5.7 | 836.58 ± 6 | 860.58 ± 6.2 | 883.37 ± 6.2 | 907.48 ± 6.2 | 931.4 ± 6.4 | 957.17 ± 6.4 | 981.86 ± 6.5 | 1008.47 ± 4
308.15 K | 791.72 ± 5.7 | 811.76 ± 5.7 | 832.38 ± 6 | 856.42 ± 6.2 | 879.25 ± 6.2 | 903.38 ± 6.2 | 927.32 ± 6.4 | 953.13 ± 6.4 | 977.84 ± 6.5 | 1004.49 ± 4
313.15 K | 787.39 ± 5.7 | 807.48 ± 5.7 | 828.13 ± 6 | 852.23 ± 6.2 | 875.1 ± 6.2 | 899.25 ± 6.2 | 923.23 ± 6.4 | 949.07 ± 6.4 | 973.81 ± 6.5 | 1000.5 ± 4
318.15 K | 782.87 ± 5.7 | 803.04 ± 5.8 | 823.74 ± 6 | 847.9 ± 6.2 | 870.82 ± 6.2 | 895 ± 6.2 | 919 ± 6.4 | 944.88 ± 6.4 | 969.66 ± 6.5 | 996.39 ± 4
323.15 K | 778.38 ± 5.7 | 798.63 ± 5.8 | 819.42 ± 6 | 843.64 ± 6.2 | 866.61 ± 6.2 | 890.84 ± 6.3 | 914.87 ± 6.4 | 940.8 ± 6.4 | 965.62 ± 6.5 | 992.41 ± 4

NCCO [2-aminoethan-1-ol] + CCCCO
mass density [kg/m3]
Settings | x1 = 0.1188 | x1 = 0.2328 | x1 = 0.3421 | x1 = 0.4472 | x1 = 0.5482 | x1 = 0.6454 | x1 = 0.739 | x1 = 0.8291 | x1 = 0.9161 | x1 = 1
293.15 K | 828.26 ± 5.1 | 846.15 ± 5.2 | 864.71 ± 5.4 | 884.56 ± 5.6 | 904.81 ± 5.8 | 925.84 ± 6 | 947.05 ± 6.2 | 969.79 ± 6.6 | 993.15 ± 6.8 | 1016.47 ± 4
298.15 K | 824.33 ± 5.1 | 842.24 ± 5.2 | 860.76 ± 5.4 | 880.66 ± 5.6 | 900.83 ± 5.8 | 921.87 ± 6 | 943.04 ± 6.2 | 965.8 ± 6.6 | 989.15 ± 6.8 | 1012.53 ± 4
303.15 K | 820.32 ± 5.1 | 838.27 ± 5.2 | 856.75 ± 5.4 | 876.66 ± 5.6 | 896.78 ± 5.8 | 917.83 ± 6 | 938.98 ± 6.2 | 961.75 ± 6.6 | 985.1 ± 6.8 | 1008.47 ± 4
308.15 K | 816.39 ± 5.1 | 834.35 ± 5.2 | 852.81 ± 5.4 | 872.72 ± 5.6 | 892.82 ± 5.8 | 913.86 ± 6 | 935 ± 6.2 | 957.78 ± 6.6 | 981.13 ± 6.8 | 1004.49 ± 4
313.15 K | 812.46 ± 5.1 | 830.41 ± 5.2 | 848.84 ± 5.4 | 868.77 ± 5.6 | 888.83 ± 5.8 | 909.88 ± 6 | 931 ± 6.2 | 953.79 ± 6.6 | 977.14 ± 6.8 | 1000.5 ± 4
318.15 K | 808.37 ± 5.1 | 826.33 ± 5.2 | 844.74 ± 5.4 | 864.67 ± 5.6 | 884.72 ± 5.8 | 905.76 ± 6 | 926.88 ± 6.2 | 949.68 ± 6.6 | 973.04 ± 6.8 | 996.39 ± 4
323.15 K | 804.35 ± 5.1 | 822.32 ± 5.2 | 840.73 ± 5.4 | 860.67 ± 5.6 | 880.7 ± 5.8 | 901.75 ± 6 | 922.86 ± 6.2 | 945.68 ± 6.6 | 969.05 ± 6.8 | 992.41 ± 4
